The structures appear in SMILES notation. Several values for one entry are separate records, joined by “and”; a condition that tells them apart may be missing. Identical values can stand only once. Some results are limits rather than exact numbers.

Here are results for one molecule from EPA's ToxValDB 9.5 (doi:10.2903/j.efsa.2010.1711).

One data set concerns Daphnia magna. The settings on record: chronic/long-term; duration: 21 days; reproduction.
Another data set concerns Bibionidae. The settings on record: chronic/long-term; duration: 28 days; development.
The next data set relates to Apis mellifera. The settings on record: acute; duration: 96 hours; oral; unspecified; mortality.
Another data set relates to Tagia sp. The settings on record: acute; duration: 14 days; mortality.
A further data set concerns Typhlodromus pyri. In words: LR50; higher = less toxic. As to conditions: acute; duration: 7 days; mortality.
In another data set the test system is Aphidius rhopalosiphi. In words: LR50; higher = less toxic. The settings on record: acute; duration: 48 hours; mortality.

The NOAEL is the highest dose or exposure tested at which no adverse effect was seen. On to `CC(C)([CH2][Sn]([CH2]C(C)(C)c1ccccc1)([CH2]C(C)(C)c1ccccc1)[O][Sn]([CH2]C(C)(C)c1ccccc1)([CH2]C(C)(C)c1ccccc1)[CH2]C(C)(C)c1ccccc1)c1ccccc1` [Fenbutatin oxide], for which the NOEC was 0.004 mg/L with Daphnia magna; greater than 1000 mg/kg in the data set with Bibionidae; 14.4 mg/kg-day with Colinus virginianus (reproduction developmental); 16.8 mg/kg-day in the data set on Anas platyrhynchos (reproductive); 0.0002 mg/L in the data set on Oncorhynchus mykiss (chronic/long-term, duration: 62 days, growth). The LD50 in the data set on Apis mellifera is greater than 200 µg/piece; in the data set with Colinus virginianus (acute, oral, mortality), greater than 2510 mg/kg-day; in the data set on Rattus norvegicus (acute, oral, F, mortality), greater than 3000 mg/kg-day. In addition, the LC50 was greater than 1000 mg/kg in the data set with Tagia sp.; greater than 1610 mg/kg-day in the data set with Colinus virginianus (acute, oral, diet, mortality); greater than 968 mg/kg-day in the data set with Anas platyrhynchos (short-term, oral, feed, mortality); 1.14 ng/mL in the data set on Oncorhynchus mykiss (acute, duration: 96 hours, mortality). The molecule also registered an NOAEC in the data set on Rattus norvegicus (acute, inhalation, mortality) of 5.13 mg/kg-day. For the same molecule, the NOAEL with Rattus norvegicus (chronic, duration: 2 years, clinical signs) is 5 mg/kg-day; in the data set on Rattus norvegicus (reproduction developmental, body weight), 4.5 mg/kg-day and 10 mg/kg-day. Further, the LR50 with Typhlodromus pyri is 468 g/ha; in the data set on Aphidius rhopalosiphi it was greater than 85.9 g/ha.
